The target in this experiment is T1, Human M4 (Homo sapiens, UniProt P08173).
T1 construct: expressed in transfected cells; host or cells: CHO-K1 (ATCC), stably expressing M4 and Gqi5
T1 sequence (P08173 1-479): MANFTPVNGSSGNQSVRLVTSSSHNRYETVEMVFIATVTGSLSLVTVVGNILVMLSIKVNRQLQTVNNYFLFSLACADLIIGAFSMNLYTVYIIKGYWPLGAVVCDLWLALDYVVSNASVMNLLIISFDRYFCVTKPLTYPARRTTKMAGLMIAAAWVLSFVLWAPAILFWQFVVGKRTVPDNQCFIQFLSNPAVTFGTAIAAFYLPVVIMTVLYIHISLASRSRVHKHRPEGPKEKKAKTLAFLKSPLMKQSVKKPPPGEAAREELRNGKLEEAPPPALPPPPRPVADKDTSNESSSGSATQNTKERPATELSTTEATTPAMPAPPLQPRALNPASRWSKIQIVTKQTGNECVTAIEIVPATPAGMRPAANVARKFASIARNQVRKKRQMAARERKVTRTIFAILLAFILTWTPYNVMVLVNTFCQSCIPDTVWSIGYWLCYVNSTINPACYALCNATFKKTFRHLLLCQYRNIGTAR
The experiment in a line: mAChR M4 cell-based functional assay (calcium flux, antagonism of EC80 acetylcholine response). As to conditions: M4/Gqi5 CHO-K1 cells; for Human M4 Emin: % ACh maximum at 30 μM; for IC50: decrease of the response elicited by an EC80 concentration of acetylcholine. The protocol:
Human or rat M4 cDNA, along with the chimeric G protein Gqi5, were transfected into Chinese hamster ovary (CHO-K1) cells purchased from the American Type Culture Collection using Lipofectamine2000. M4/Gqr5/CHO cells were grown in Ham's F-12 medium containing 10% heat-inactivated fetal bovine serum (FBS), 20 mM HEPES, 500 μg/mL G418 sulfate, and 200 μg/mL Hygromycin B.
For high throughput measurement of agonist-evoked increases in intracellular calcium, CHO-K1 cells stably expressing muscarinic receptors were plated in growth medium lacking G418 and hygromycin at 15,000 cells/20 μL/well in Greiner 384-well black-walled, tissue culture (TC)-treated, clear-bottom plates (VWR). Cells were incubated overnight at 37° C. and 5% CO2. The next day, cells were washed using an ELX 405 (BioTek) with assay buffer; the final volume was then aspirated to 20 μL. Next, 20 μL of a 2.3 μM stock of Fluo-4/acetoxymethyl ester (Invitrogen, Carlsbad, CA), prepared as a 2.3 mM stock in DMSO and mixed in a 1:1 ratio with 10% (w/v) Pluronic F-127 and diluted in assay buffer, was added to the wells and the cell plates were incubated for 50 min at 37° C. and 5% CO2. Dye was removed by washing with the ELX 405 and the final volume was aspirated to 20 μL. Compound master plates were formatted in a 10 point concentration-response curve (CRC) format (1:3 dilutions) in 100% DMSO with a starting concentration of 10 or 1 mM using a BRAVO liquid handler (Agilent). Test compound CRCs were then transferred to daughter plates (240 nL) using the Echo acoustic plate reformatter (Labcyte, Sunnyvale, CA) and then diluted into assay buffer (40 μL) to a 2× stock using a Thermo Fisher Combi (Thermo Fisher Scientific, Waltham, MA).
Calcium flux was measured using the Functional Drug Screening System (FDSS) 6000 or 7000 (Hamamatsu Corporation, Tokyo, Japan) as an increase in the fluorescent static ratio. Compounds were applied to cells (20 μL, 2×) using the automated system of the FDSS at 2 seconds into the protocol and the data were collected at 1 Hz. At 143 s, 10 μL of an EC20 concentration of the muscarinic receptor agonist acetylcholine was added (5×), followed by the addition of 12 μL of an EC80 concentration of acetylcholine at the 268 s time point (5×). Agonist activity was analyzed as a concentration-dependent increase in calcium mobilization upon compound addition. Positive allosteric modulator activity was analyzed as a concentration-dependent increase in the EC20 acetylcholine response. Antagonist activity was analyzed as a concentration-dependent decrease in the EC80 acetylcholine response; for the purposes of the tables herein, an IC50 (inhibitory concentration 50) was calculated as a concentration-dependent decrease of the response elicited by an EC80 concentration of acetylcholine. Concentration-response curves were generated using a four-parameter logistical equation in XLFit curve fitting software (IDBS, Bridgewater, NJ) for Excel (Microsoft, Redmond, WA) or Prism (GraphPad Software, Inc., San Diego, CA) or the Dotmatics software platform (Dotmatics, Bishop's Stortford, UK).
Compounds were synthesized as described above. Activity (IC50 and Emin) was determined in the mAChR M4 cell-based functional assay as described above and the data are shown in Table 2.

`[2H]C([2H])(C1CCOCC1)N1C[C@H]2C[C@H](Nc3ccc(-c4ccc(S(C)(=O)=NC(F)(F)F)cc4)nn3)C[C@H]2C1` (stereo partly drawn) [compound 12, methyl(4-(6-(((3aR,5s,6aS)-2-((tetrahydro-2H-pyran-4-yl)methyl-d2)octahydrocyclopenta[c]pyrrol-5-yl)amino)pyridazin-3-yl)phenyl)((trifluoromethyl)imino)-λ^6-sulfanone]: the “Human M4 Emin” value is reported as 2% and the IC50 was found to be 0.0434 µM.

Regarding `CS(=N)(=O)c1cc(F)c(-c2ccc(N[C@H]3C[C@@H]4CN(CC5CCOCC5)C[C@@H]4C3)nn2)cc1F` (stereo partly drawn) [compound 7, (2,5-difluoro-4-(6-(((3aR,5s,6aS)-2-((tetrahydro-2H-pyran-4-yl)methyl)octahydrocyclopenta[c]pyrrol-5-yl)amino)pyridazin-3-yl)phenyl)(imino)(methyl)-λ^6-sulfanone], the “Human M4 Emin” value came to 3% and the IC50 is 0.04 µM.

Regarding `CS(=N)(=O)c1cc(F)c(-c2ccc(N[C@H]3C[C@@H]4CN(CC5CCCCC5)C[C@@H]4C3)nn2)cc1F` (stereo partly drawn) [compound 10, (4-(6-(((3aR,5s,6aS)-2-(cyclohexylmethyl)octahydrocyclopenta[c]pyrrol-5-yl)amino)pyridazin-3-yl)-2,5-difluorophenyl)(imino)(methyl)-λ^6-sulfanone], the “Human M4 Emin” value was 2% and the IC50 is 0.0018 µM.

Turning to `CS(=N)(=O)c1cc(F)c(-c2ccc(N[C@H]3C[C@@H]4CN(CCC5CCOCC5)C[C@@H]4C3)nn2)cc1F` (stereo partly drawn) [compound 9, (2,5-difluoro-4-(6-(((3aR,5s,6aS)-2-(2-(tetrahydro-2H-pyran-4-yl)ethyl)octahydrocyclopenta[c]pyrrol-5-yl)amino)pyridazin-3-yl)phenyl)(imino)(methyl)-λ^6-sulfanone], the “Human M4 Emin” value was found to be 3% and the IC50 is 0.0184 µM.

For the compound `[2H]C([2H])(C1CCOCC1)N1C[C@H]2C[C@H](Nc3ccc(-c4cc(F)c(S(C)(=O)=NC(C)=O)cc4F)nn3)C[C@H]2C1` (stereo partly drawn) [compound 4, N-((2,5-difluoro-4-(6-(((3aR,5s,6aS)-2-((tetrahydro-2H-pyran-4-yl)methyl-d2)octahydrocyclopenta[c]pyrrol-5-yl)amino)pyridazin-3-yl)phenyl)(methyl)(oxo)-λ^6-sulfaneylidene)acetamide], the “Human M4 Emin” value worked out at 6% and the IC50 is 0.584 µM.

On to `[2H]C([2H])([2H])N=S(C)(=O)c1cc(F)c(-c2ccc(N[C@H]3C[C@@H]4CN(C([2H])([2H])C5CCOCC5)C[C@@H]4C3)nn2)cc1F` (stereo partly drawn) [compound 3, (2,5-difluoro-4-(6-(((3aR,5s,6aS)-2-((tetrahydro-2H-pyran-4-yl)methyl-d2)octahydrocyclopenta[c]pyrrol-5-yl)amino)pyridazin-3-yl)phenyl)(methyl)((methyl-d3)imino)-λ^6-sulfanone], for which the “Human M4 Emin” value stood at 3% and the 50% inhibitory concentration (IC50) was determined as 0.0185 µM.

For `[2H]C([2H])(C1CC(C)(C)OC(C)(C)C1)N1C[C@H]2C[C@H](Nc3ccc(-c4cc(F)c(S(C)(=N)=O)cc4F)nn3)C[C@H]2C1` (stereo partly drawn) [compound 11, (2,5-difluoro-4-(6-(((3aR,5s,6aS)-2-((2,2,6,6-tetramethyltetrahydro-2H-pyran-4-yl)methyl-d2)octahydrocyclopenta[c]pyrrol-5-yl)amino)pyridazin-3-yl)phenyl)(imino)(methyl)-λ^6-sulfanone], the “Human M4 Emin” value amounted to 3% and the concentration for half-maximal inhibition (IC50) worked out at 0.0862 µM.

Take `[2H]C([2H])(C1CCOCC1)N1C[C@H]2C[C@H](Nc3ccc(-c4cc(F)c(S(C)(=N)=O)cc4F)nn3)C[C@H]2C1` (stereo partly drawn) [compound 1, (2,5-difluoro-4-(6-(((3aR,5s,6aS)-2-((tetrahydro-2H-pyran-4-yl)methyl-d2)octahydrocyclopenta[c]pyrrol-5-yl)amino)pyridazin-3-yl)phenyl)(imino)(methyl)-λ^6-sulfanone]: the “Human M4 Emin” value is given as 4% and the IC50 turned out to be 0.0134 µM.

For the compound `[2H]C([2H])(C1CCOCC1)N1C[C@H]2C[C@H](Nc3ccc(-c4ccc(S(C)(=N)=O)c(F)c4)nn3)C[C@H]2C1` (stereo partly drawn) [compound 6, (2-fluoro-4-(6-(((3aR,5s,6aS)-2-((tetrahydro-2H-pyran-4-yl)methyl-d2)octahydrocyclopenta[c]pyrrol-5-yl)amino)pyridazin-3-yl)phenyl)(imino)(methyl)-λ^6-sulfanone], the “Human M4 Emin” value worked out at 3% and the IC50 stood at 0.188 µM.

Consider `[2H]C([2H])(C1CCOCC1)N1C[C@H]2C[C@H](Nc3ccc(-c4ccc(S(C)(=N)=O)cc4F)nn3)C[C@H]2C1` (stereo partly drawn) [compound 5, (3-fluoro-4-(6-(((3aR,5s,6aS)-2-((tetrahydro-2H-pyran-4-yl)methyl-d2)octahydrocyclopenta[c]pyrrol-5-yl)amino)pyridazin-3-yl)phenyl)(imino)(methyl)-λ^6-sulfanone], for which the “Human M4 Emin” value is reported as 3% and the IC50 was 0.0754 µM.

Regarding `[2H]C([2H])(C1CCOCC1)N1C[C@H]2C[C@H](Nc3ccc(-c4ccc(S(C)(=N)=O)cc4)nn3)C[C@H]2C1` (stereo partly drawn) [compound 2, imino(methyl)(4-(6-(((3aR,5s,6aS)-2-((tetrahydro-2H-pyran-4-yl)methyl-d2)octahydrocyclopenta[c]pyrrol-5-yl)amino)pyridazin-3-yl)phenyl)-λ^6-sulfanone], the “Human M4 Emin” value is listed as 2% and the half-maximal inhibitory concentration (IC50) stood at 0.0396 µM.

For `CS(=N)(=O)c1cc(F)c(-c2ccc(N[C@H]3C[C@@H]4CN(Cc5ccccn5)C[C@@H]4C3)nn2)cc1F` (stereo partly drawn) [compound 8, (2,5-difluoro-4-(6-(((3aR,5s,6aS)-2-(pyridin-2-ylmethyl)octahydrocyclopenta[c]pyrrol-5-yl)amino)pyridazin-3-yl)phenyl)(imino)(methyl)-λ^6-sulfanone], the “Human M4 Emin” value amounted to 7% and the IC50 turned out to be 0.56 µM.

Turning to `[2H]C([2H])(C1CCOCC1)N1C[C@H]2C[C@H](Nc3ccc(-c4ccc(S(C)(=N)=O)c(C(F)(F)F)c4)nn3)C[C@H]2C1` (stereo partly drawn) [compound 13, imino(methyl)(4-(6-(((3aR,5s,6aS)-2-((tetrahydro-2H-pyran-4-yl)methyl-d2)octahydrocyclopenta[c]pyrrol-5-yl)amino)pyridazin-3-yl)-2-(trifluoromethyl)phenyl)-λ^6-sulfanone], the “Human M4 Emin” value is recorded as 3% and the IC50 was 0.0086 µM.

Usually IC50 stands for the point on the concentration scale where inhibition reaches its midpoint.

For the origin of these results see patent US12630540B2, “(4-(6-((2-octahydrocyclopenta[c]pyrrol-5-yl)amino)pyridazin-3-yl)phenyl)(imino)(methyl)-LAMBDA6-sulfanone derivatives and similar compounds as muscarinic acetylcholine receptor M4 antagonists for the treatment of neurodegenerative disorders” (Vanderbilt University, priority 2021, dated 2026).
